“And” between values parts separate entries of the source, which are not always exact repeats. Equal values may be shown once.
Key:
[1] = test system: GM-6114; assay: MTT assay, cytotoxicity on normal fibroblasts; assay type: cell-based; details: human, 48 h, 10 µM
[2] = DPPH radical-scavenging activity; assay type: physicochemical; design: AA (%), percentage of antioxidant activity: concentration or dose not given beside the values; details: mean ± SD, n = 2
Method: The antioxidant activity of the representative compounds of the two series (namely, acylhydrazones 10b, 11a, 11d, 12d, 13d, and amides 14, 22) was measured in vitro using the 2,2-diphenyl-1-picrylhydrazyl (DPPH) assay. The results were calculated as Trolox equivalent and expressed as a percentage of antioxidant activity (AA) (Table 3). […] Derivatives 10b and 12d were endowed with the highest antioxidant activity, thus highlighting the relevance of both pyrazole N1 and acylhydrazone substituents on compounds’ radical scavenging properties.
Compounds 10b, 11a, 11d, 12d, 13d, 14, and 22 (ca. 3 mg) were dissolved in DMSO (1 mL), and then 100 µL of this solution was mixed with 3.9 mL of DPPH methanol solution (65 µM). Absorbance was measured at 517 nm after reacting for 30 min in the dark. The linear calibration curve was obtained using Trolox standards (ranging between 20 and 200 mg/L, R^2 = 0.9955). The result was calculated as Trolox equivalent in mg/L, and the percentage of antioxidant activity (AA%) was calculated from the ratio of decreasing absorbance of sample solution (A0 − As) to absorbance of blank DPPH solution (A0), as expressed in Equation (1). (1) AA%=A0−As/A0×100
All analyses were carried out in duplicate (n = 2), and values are given as means ± standard deviation (SD).

[3] = test system: SK-BR3; assay: MTT assay, antiproliferative activity; assay type: cell-based; details: Homo sapiens, SK-BR-3, 48h
Method: (§1) Pyrazole acylhydrazones 10–13 and amides 14–22 were tested by MTT assay to evaluate their antiproliferative and cytotoxicity properties against a panel of eight tumor cell lines and normal fibroblasts.
(§2) All reagents were purchased from EuroClone, Milan, Italy). The following cell lines were used for MTT assays: SKOV-3 (ovarian adenocarcinoma, ATCC, Manassas, VA, USA); MCF-7 (breast adenocarcinoma, Biologic Bank and Cell Factory, IRCCS Policlinico San Martino, Genoa, Italy); Hep-G2 (hepatocellular carcinoma, ATCC, Manassas, VA, USA); SK-MEL28 (skin melanoma, Biologic Bank and Cell Factory, IRCCS Policlinico San Martino, Genoa, Italy), GM-6114 (embryonic human fibroblast, ATCC, Manassas, VA, USA); MDA-MB231 (breast adenocarcinoma, Biologic Bank and Cell Factory, IRCCS Policlinico San Martino, Genoa, Italy); HeLa (cervical adenocarcinoma, Biologic Bank and Cell Factory, IRCCS Policlinico San Martino, Genoa, Italy); SK-BR3 (breast andenocarcinoma, Biologic Bank and Cell Factory, IRCCS Policlinico San Martino, Genoa, Italy); A549 (lung carcinoma, Biologic Bank and Cell Factory, IRCCS Policlinico San Martino, Genoa, Italy); HUVEC (Human Umbilical Vein Endothelial Cells, ATCC, Manassas, VA, USA). All cell lines were grown in their medium with 10% FBS, 2 mM Glutamine, and 1% penstrep and incubated at 37 °C in 5% CO2 in a humidified environment. The cell lines were plated in 96-well plates at an adequate number to reach 80–90% confluence at the end of the assay. 16 h after cell plating, a 10 mM DMSO stock solution of the compounds was diluted in growth medium and added at a final working concentration of 10 μM. After 48h of incubation, a 2 mg/mL PBS solution of MTT (3-(4,5-dimethyl-2-thiazolyl)-2,5-diphenyl-2H-tetrazolium bromide) was added (30 μL/well). After 4h, the supernatant was removed, and the Formazan precipitates were dissolved in DMSO (100 μL/well). The 96-well plates were incubated for 20 min, and absorbance was measured at 570 nm using a plate reader. The results are expressed as a percentage ratio over control samples (100%) in which the cells were incubated with the same amount of DMSO but without compounds. Each value is the mean of three independent experiments run in six replicates.

[4] = test system: Hep-G2; assay: MTT assay, antiproliferative activity; assay type: cell-based; details: Homo sapiens, HepG2, 48h
Method: as §1, §2

[5] = test system: A549; assay: MTT assay, antiproliferative activity; assay type: cell-based; details: Homo sapiens, 48h, read-out: Mean Growth Percentage
Method: as §1, §2

[6] = test system: MDA-MB231; assay: MTT assay, antiproliferative activity; assay type: cell-based; details: Homo sapiens, MDA-MB-231, 48h
Method: as §1, §2

[7] = test system: washed platelets; assay: Platelet aggregation (thrombin-induced, Born's method); assay type: cell-based; details: Homo sapiens, 0.1 U/mL thrombin, mean ± SD, read-out: IC50 Aggregation inhibition
Method: (§3) The antioxidant properties of acylhydrazones 10–13 and pyrazolyl amides 14–22 were tested by evaluating their inhibition of platelet aggregation and ROS production (Figure 3, Table S1). In fact, human platelets could represent a fast and low-cost biological model to screen compounds as anticancer, anti-inflammatory, and antiaggregating agents. Moreover, ROS production inhibition, related to human platelet aggregation, could provide a good indication of the anti-inflammatory and antioxidant properties of the newly synthesized compounds [47, 50, 51, 52]. N-acetylcysteine (NAC) and acetyl salicylic acid (ASA) were used as reference drugs for antioxidant and antiaggregant activities, respectively.
(§4) Freshly drawn venous blood from healthy volunteers from “Centro Trasfusionale” (IRCCS Policlinico San Martino, Genoa, Italy) was collected into a 130 mM aqueous trisodium citrate anticoagulant solution (9:1). The donors claimed to not have taken drugs known to interfere with platelet function during the two weeks prior to blood collection and gave their informed consent. Whole blood was centrifuged at 100× g for 20 min to afford platelet-rich plasma that was then spun at 1100× g for 15 min. The obtained pellet was washed once with a pH 5.2 ACD solution (75 mM trisodium citrate, 42 mM citric acid, and 136 mM glucose), centrifuged at 1100× g for 15 min, and then re-suspended in pH 7.4 Hepes buffer (145 mM NaCl, 5 mM KCl, 1 mM MgSO4, 10 mM glucose, and 10 mM HEPES).
Thrombin was purchased from Sigma-Aldrich/Merck Millipore. A DMSO solution of compounds 10–22 was diluted in saline immediately before each experiment and added to the washed platelets (3.0 × 10^8/mL) at 37 °C. After 3 min, 0.1 U/mL thrombin was added, and platelet aggregation was quantified according to Born’s method using a Bio-Data Aggregometer (Bio-Data Corporation, Horsham, PA, USA). The IC50 values were calculated as detailed above.

[8] = test system: washed platelets; assay: ROS assay in platelets (DCFH-DA, thrombin-stimulated); assay type: cell-based, human; details: Homo sapiens, Platelet, 0.1 U/mL thrombin, mean ± SD, read-out: IC50 ROS production inhibition
Method: as §3, §4
2′,7′-Dichlorofluorescein diacetate (DCFH-DA) and thrombin were purchased from Sigma-Aldrich/Merck Millipore. DMSO solutions of 10–22 were diluted in saline immediately before each experiment. ROS production was quantified by DCFH-DA, a ROS-sensitive probe that yields, upon oxidation, the fluorescent adduct DCF that is trapped inside the cells. Briefly, washed platelets (1.0 × 10^8/mL), pre-incubated with saline solutions of 10–22 for 15 min at 37 °C, were stimulated by 0.1 U/mL thrombin. Incubation was stopped by cooling samples in an ice bath, and then samples were immediately analyzed in a Merck Millipore Bioscience Guava easyCyte flow cytometer (Merk Millipore, Burlington, MA, USA). The reported IC50 values represent the molar concentration of the compounds able to inhibit 50% of the maximal aggregation induced by the agonist and are calculated as the percentage inhibition of the maximal aggregation measured in the presence of the agent compared with the measure in a control sample containing saline, carried out under the same conditions. The IC50 values were extrapolated from nonlinear regression analysis of concentration–response curves (three points) using MS Excel software (Microsoft 365 suite). Each IC50 value is the mean of six independent experiments.

[9] = test system: MCF7; assay: MTT assay, antiproliferative activity; assay type: cell-based; details: Homo sapiens, 10 µM, 48h
Method: as §1, §2
(§5) Each IC50 value is the mean of three independent experiments run in duplicate.

[10] = test system: SKMEL28; assay: MTT assay, antiproliferative activity; assay type: cell-based; details: Homo sapiens, SK-MEL-28, 10 µM, 48h
Method: as §1, §2, §5

[11] = test system: HeLa; assay: MTT assay, antiproliferative activity; assay type: cell-based; details: Homo sapiens, 10 µM, 48h, read-out: Mean Growth Percentage
Method: as §1, §2, §5

[12] = test system: SKOV3; assay: MTT assay, antiproliferative activity; assay type: cell-based; details: Homo sapiens, SK-OV-3, 10 µM, 48h
Method: as §1, §2, §5

Compound | Mean Growth Percentage [1] | AA (%), percentage of antioxidant activity [2] | DPPH (%) [2] | Mean growth percentage at 10 µM [3] | Mean growth percentage at 10 µM [4] | activity at 10 µM [5] | Mean growth percentage at 10 µM [6] | IC50 [7] | IC50 [8] | mean growth percentage (cell growth remaining vs control) at 10 µM [9] | Mean growth percentage at 10 µM [10] | activity at 10 µM [11] | Mean growth percentage at 10 µM [12] | melting point
COc1ccc(/C=N/NC(=O)c2c(Nc3ccccc3)nn(C)c2N)cc1OCc1ccccc1 [12d, (E)-5-amino-N′-(3-(benzyloxy)-4-methoxybenzylidene)-1-methyl-3-(phenylamino)-1H-pyrazole-4-carbohydrazide] | 102.79% | 69.10 ± 0.39% | 30.90 ± 0.39% | 90.6% | 105% | 102% | 94.1% | 433 ± 16 µM | 171 ± 9 µM | 85.2% | 80.8% | 85.7% | 106% | 
COc1ccc(/C=N/NC(=O)c2c(N)n[nH]c2Nc2ccccc2)cc1OC [10b, (E)-3-amino-N′-(3,4-dimethoxybenzylidene)-5-(phenylamino)-1H-pyrazole-4-carbohydrazide] | 107.36% | 76.45% and 76.45 ± 0.39% | 23.55 ± 0.39% | 91.6% | 115% | 91.1% | 100% | 94 ± 7 µM | 104 ± 4 µM | 95.3% | 94.5% | 105% | 114% | 
COc1ccc(/C=N/NC(=O)c2c(Nc3ccccc3)nn(CC(O)c3ccccc3)c2N)cc1OCc1ccccc1 (stereo not drawn) [13d, (E)-5-amino-N′-(3-(benzyloxy)-4-methoxybenzylidene)-1-(2-hydroxy-2-phenylethyl)-3-(phenylamino)-1H-pyrazole-4-carbohydrazide] | 95.39% | 56.29 ± 1.18% | 43.71 ± 1.18% | 97.9% | 120% | 90.4% | 93.8% | 437 ± 25 µM | 405 ± 29 µM | 108% | 93.9% | 96.7% | 112% | 170 to 173 °C
CCOC(=O)c1c(NC(=O)c2cc(OC)c(OC)c(OC)c2)nn(C)c1Nc1ccccc1 [compound 22, Ethyl 1-methyl-5-(phenylamino)-3-(3,4,5-trimethoxybenzamido)-1H-pyrazole-4-carboxylate] | 57.94% | 2.39 ± 0.24% | 97.61 ± 0.24% | 103% | 102% | 106% | 140% | 249 ± 22 µM | 313 ± 25 µM | 115% | 84.1% | 109% | 94.2% | 135 to 138 °C
CCOC(=O)c1c(NC(=O)c2ccc(Cl)cc2)nn(C)c1Nc1ccccc1 [compound 18, Ethyl 3-(4-chlorobenzamido)-1-methyl-5-(phenylamino)-1H-pyrazole-4-carboxylate] | 72.99% |  |  | 80.9% | 78.5% | 69.6% | 141% | 268 ± 25 µM | 273 ± 17 µM | 63.5% | 68.4% | 91.5% | 96.9% | 158 to 161 °C
COc1ccc(/C=N/NC(=O)c2c(Nc3ccccc3)nn(CC(O)c3ccccc3)c2N)cc1OC (stereo not drawn) [13b, (E)-5-amino-N′-(3,4-dimethoxybenzylidene)-1-(2-hydroxy-2-phenylethyl)-3-(phenylamino)-1H-pyrazole-4-carbohydrazide] | 106.86% |  |  | 92.2% | 106% | 104% | 92.1% | 909 ± 87 µM | 433 ± 32 µM | 101% | 95.7% | 98.8% | 114% | 158 to 159 °C
